Laboratory results taken from article PMC5218480 (PLoS ONE, 2017).

Tested on: MV-4-11 cells
Experiment: Gene expression microarray analysis (Affymetrix PrimeView) and GSEA
Type: cell-based, human
Set-up: RFU PODN (11730768_x_at) / Fold change /veh PODN (11730768_x_at) / RFU LINC00158 (11744669_a_at) / Fold change /veh LINC00158 (11744669_a_at) / RFU DUSP10 (11751237_a_at) / Fold change /veh DUSP10 (11751237_a_at) / RFU ID3 (11757404_x_at) / Fold change /veh ID3 (11757404_x_at) / RFU PLEKHG5 (11737974_s_at) / Fold change /veh PLEKHG5 (11737974_s_at) / RFU LRRC4B (11730491_at) / Fold change /veh LRRC4B (11730491_at) / RFU GIMAP4 (11747438_a_at) / Fold change /veh GIMAP4 (11747438_a_at) / RFU KRT8 (11758183_x_at) / Fold change /veh KRT8 (11758183_x_at) / RFU CNN1 (11734310_a_at) / Fold change /veh CNN1 (11734310_a_at) / RFU VPS37D (11726825_at) / Fold change /veh VPS37D (11726825_at) / RFU C10orf10 (11716522_x_at) / Fold change /veh C10orf10 (11716522_x_at) / RFU KIR2DL2 /// KIR2DL4 /// KIR2DL5A /// KIR2DL5B /// KIR2DS1 /// KIR2DS2 /// KIR2DS3 /// KIR2DS4 /// KIR3DL3 /// KIR3DL3 /// KIR3DS1 (11738374_at) / Fold change /veh KIR2DL2 /// KIR2DL4 /// KIR2DL5A /// KIR2DL5B /// KIR2DS1 /// KIR2DS2 /// KIR2DS3 /// KIR2DS4 /// KIR3DL3 /// KIR3DL3 /// KIR3DS1 (11738374_at) / RFU C1QL1 (11718748_at) / Fold change /veh C1QL1 (11718748_at) / RFU TMPRSS4 (11747572_a_at) / Fold change /veh TMPRSS4 (11747572_a_at) / RFU HAMP (11756126_x_at) / Fold change /veh HAMP (11756126_x_at) / RFU RNFT2 (11725882_a_at) / Fold change /veh RNFT2 (11725882_a_at) / RFU NR4A2 (11747474_a_at) / Fold change /veh NR4A2 (11747474_a_at) / RFU ABCC12 (11746883_a_at) / Fold change /veh ABCC12 (11746883_a_at) / RFU TMEM136 (11760407_x_at) / Fold change /veh TMEM136 (11760407_x_at) / RFU CLDN22 /// WWC2 (11732394_at) / Fold change /veh CLDN22 /// WWC2 (11732394_at) / RFU HLA-DPB1 (11760878_x_at) / Fold change /veh HLA-DPB1 (11760878_x_at) / RFU SPINT1 (11716480_a_at) / Fold change /veh SPINT1 (11716480_a_at) / RFU GAP43 (11754022_s_at) / Fold change /veh GAP43 (11754022_s_at) / RFU A4GNT (11735810_at) / Fold change /veh A4GNT (11735810_at) / RFU PRB3 (11715151_x_at) / Fold change /veh PRB3 (11715151_x_at) / RFU TUBB4B (11761932_at) / Fold change /veh TUBB4B (11761932_at) / RFU CAPN14 (11732068_a_at) / Fold change /veh CAPN14 (11732068_a_at) / RFU TMCC2 (11721928_a_at) / Fold change /veh TMCC2 (11721928_a_at) / RFU IRGQ (11745062_a_at) / Fold change /veh IRGQ (11745062_a_at) / RFU FAM174B (11720279_a_at) / Fold change /veh FAM174B (11720279_a_at) / RFU TMPRSS4 (11748680_a_at) / Fold change /veh TMPRSS4 (11748680_a_at) / RFU FAM212B (11763350_a_at) / Fold change /veh FAM212B (11763350_a_at) / RFU PLEKHG5 (11743358_a_at) / Fold change /veh PLEKHG5 (11743358_a_at) / RFU ZSCAN30 (11745921_a_at) / Fold change /veh ZSCAN30 (11745921_a_at) / RFU CMKLR1 (11741424_a_at) / Fold change /veh CMKLR1 (11741424_a_at) / RFU LOC101060620 /// MAPK8IP1 (11723275_at) / Fold change /veh LOC101060620 /// MAPK8IP1 (11723275_at) / RFU SPTSSB (11747773_x_at) / Fold change /veh SPTSSB (11747773_x_at) / RFU PRSS12 (11739890_at) / Fold change /veh PRSS12 (11739890_at) / RFU BIN1 (11741810_x_at) / Fold change /veh BIN1 (11741810_x_at) / RFU WNT11 (11732464_a_at) / Fold change /veh WNT11 (11732464_a_at) / RFU C10orf10 (11716521_a_at) / Fold change /veh C10orf10 (11716521_a_at) / RFU C5orf56 (11738089_at) / Fold change /veh C5orf56 (11738089_at) / RFU CYB561 (11721691_x_at) / Fold change /veh CYB561 (11721691_x_at) / RFU ANKRD19P (11752326_a_at) / Fold change /veh ANKRD19P (11752326_a_at) / RFU OR2T12 /// OR2T33 /// OR2T8 (11738714_s_at) / Fold change /veh OR2T12 /// OR2T33 /// OR2T8 (11738714_s_at) / RFU VCAN (11748164_a_at) / Fold change /veh VCAN (11748164_a_at) / RFU JSRP1 (11732532_at) / Fold change /veh JSRP1 (11732532_at) / RFU KRTAP10-11 (11738290_x_at) / Fold change /veh KRTAP10-11 (11738290_x_at) / RFU MYO3A (11730013_a_at) / Fold change /veh MYO3A (11730013_a_at) / RFU EBF3 (11725865_a_at) / Fold change /veh EBF3 (11725865_a_at) / RFU CAMK2N1 (11719241_x_at) / Fold change /veh CAMK2N1 (11719241_x_at) / RFU C5orf56 (11738088_a_at) / Fold change /veh C5orf56 (11738088_a_at) / RFU OLFML3 (11715873_a_at) / Fold change /veh OLFML3 (11715873_a_at) / RFU LOC100653217 /// NTM (11731650_a_at) / Fold change /veh LOC100653217 /// NTM (11731650_a_at) / RFU MAPK11 (11762145_a_at) / Fold change /veh MAPK11 (11762145_a_at) / RFU FIZ1 (11724087_x_at) / Fold change /veh FIZ1 (11724087_x_at) / RFU OASL (11726364_x_at) / Fold change /veh OASL (11726364_x_at) / RFU SOX15 (11748057_x_at) / Fold change /veh SOX15 (11748057_x_at) / RFU CD79A (11719716_a_at) / Fold change /veh CD79A (11719716_a_at) / RFU HIST1H1D (11736915_at) / Fold change /veh HIST1H1D (11736915_at) / RFU CASKIN2 (11723855_a_at) / Fold change /veh CASKIN2 (11723855_a_at) / RFU LOC730098 (11760151_x_at) / Fold change /veh LOC730098 (11760151_x_at) / RFU OR4N2 (11742367_at) / Fold change /veh OR4N2 (11742367_at) / RFU PRRT2 (11749266_a_at) / Fold change /veh PRRT2 (11749266_a_at) / RFU SNX32 (11753110_a_at) / Fold change /veh SNX32 (11753110_a_at) / RFU CDHR5 (11726645_a_at) / Fold change /veh CDHR5 (11726645_a_at) / RFU RCAN1 (11760418_a_at) / Fold change /veh RCAN1 (11760418_a_at) / RFU FAM167A (11723789_a_at) / Fold change /veh FAM167A (11723789_a_at) / RFU FAM26E (11764081_at) / Fold change /veh FAM26E (11764081_at) / RFU ISYNA1 (11749810_s_at) / Fold change /veh ISYNA1 (11749810_s_at) / RFU ACY1 (11761880_at) / Fold change /veh ACY1 (11761880_at) / RFU 11764098_at / Fold change /veh 11764098_at / RFU SAMD14 (11745864_x_at) / Fold change /veh SAMD14 (11745864_x_at) / RFU NPB (11741838_a_at) / Fold change /veh NPB (11741838_a_at) / RFU TMPRSS6 (11731388_a_at) / Fold change /veh TMPRSS6 (11731388_a_at) / RFU KRTAP10-2 (11738614_at) / Fold change /veh KRTAP10-2 (11738614_at) / RFU ARHGAP8 /// PRR5-ARHGAP8 (11727945_x_at) / Fold change /veh ARHGAP8 /// PRR5-ARHGAP8 (11727945_x_at) / RFU KRTAP5-7 /// NADSYN1 (11734609_at) / Fold change /veh KRTAP5-7 /// NADSYN1 (11734609_at) / RFU RASL12 (11751679_a_at) / Fold change /veh RASL12 (11751679_a_at) / RFU CDKN2B (11736163_a_at) / Fold change /veh CDKN2B (11736163_a_at) / RFU PRF1 (11729649_at) / Fold change /veh PRF1 (11729649_at) / RFU, ZNF638 /// ZNF638-IT1 / Fold change vs veh, ZNF638 /// ZNF638-IT1 / RFU, PANK3 / Fold change vs veh, PANK3 / RFU, SH3YL1 / Fold change vs veh, SH3YL1 / RFU, ZEB2 / Fold change vs veh, ZEB2 / RFU, NRIP1 / Fold change vs veh, NRIP1 / RFU, PTTG1IP / Fold change vs veh, PTTG1IP / RFU, CAPN2 / Fold change vs veh, CAPN2 / RFU, MED14 / Fold change vs veh, MED14 / RFU, SNORA58 / Fold change vs veh, SNORA58 / RFU, C1orf63 / Fold change vs veh, C1orf63 / RFU, LRRFIP1 / Fold change vs veh, LRRFIP1 / RFU, NDUFAF7 / Fold change vs veh, NDUFAF7 / RFU, SLC12A2 / Fold change vs veh, SLC12A2 / RFU, IBTK / Fold change vs veh, IBTK / RFU, ESF1 / Fold change vs veh, ESF1 / Fold change vs veh, TMEM50B / RFU, TAOK1 / Fold change vs veh, TAOK1 / RFU, ACBD3 / Fold change vs veh, ACBD3 / RFU, TMA16 / Fold change vs veh, TMA16 / RFU, RWDD3 / Fold change vs veh, RWDD3 / RFU, BCAT1 / Fold change vs veh, BCAT1 / RFU, EDEM3 / Fold change vs veh, EDEM3 / RFU, TMEM33 / Fold change vs veh, TMEM33 / RFU, WDR75 / Fold change vs veh, WDR75 / RFU, AHCTF1 / Fold change vs veh, AHCTF1 / RFU, TFRC / Fold change vs veh, TFRC / RFU, ZDHHC17 / Fold change vs veh, ZDHHC17 / RFU, NOM1 / Fold change vs veh, NOM1 / RFU, ARL8B / Fold change vs veh, ARL8B / RFU, ZBTB11 / Fold change vs veh, ZBTB11 / RFU, TAMM41 / Fold change vs veh, TAMM41 / RFU, KIAA1704 /// LOC100996395 / Fold change vs veh, KIAA1704 /// LOC100996395 / RFU, ING1 / Fold change vs veh, ING1 / RFU, TRMT61B / Fold change vs veh, TRMT61B / RFU, FUBP3 / Fold change vs veh, FUBP3 / RFU, TP53 / Fold change vs veh, TP53 / RFU, TNKS2 / Fold change vs veh, TNKS2 / RFU, ZFP14 / Fold change vs veh, ZFP14 / RFU, ACTR2 / Fold change vs veh, ACTR2 / RFU, PPP3R1 / Fold change vs veh, PPP3R1 / RFU, PIK3R1 / Fold change vs veh, PIK3R1 / RFU, HNRNPA1 / Fold change vs veh, HNRNPA1 / RFU, RNF170 / Fold change vs veh, RNF170 / RFU, ZNF28 / Fold change vs veh, ZNF28 / RFU, RNGTT / Fold change vs veh, RNGTT / RFU, OGT / Fold change vs veh, OGT / RFU, BRD1 / Fold change vs veh, BRD1 / RFU, MARS / Fold change vs veh, MARS / RFU, ZNF655 / Fold change vs veh, ZNF655 / RFU, FAHD1 / Fold change vs veh, FAHD1 / RFU, BDP1 / Fold change vs veh, BDP1 / RFU, LRRCC1 / Fold change vs veh, LRRCC1 / RFU, ARID1A / Fold change vs veh, ARID1A / RFU, ZNF146 / Fold change vs veh, ZNF146 / RFU, ZNF330 / Fold change vs veh, ZNF330 / RFU, GPN3 / Fold change vs veh, GPN3 / RFU, C9orf123 / Fold change vs veh, C9orf123 / RFU, N4BP2L2 / Fold change vs veh, N4BP2L2 / RFU, ARFIP1 / Fold change vs veh, ARFIP1 / RFU, FAM179B / Fold change vs veh, FAM179B / RFU, BCL10 / Fold change vs veh, BCL10 / RFU, UHRF1BP1L / Fold change vs veh, UHRF1BP1L / RFU, BET1 / Fold change vs veh, BET1 / RFU, CNOT2 / Fold change vs veh, CNOT2 / RFU, ZNF268 / Fold change vs veh, ZNF268 / Fold change vs veh, ZNF507 / RFU, DGCR2 / Fold change vs veh, DGCR2 / RFU, WDSUB1 / Fold change vs veh, WDSUB1 / Fold change vs veh, HSP90B1 /// MIR3652 / RFU, ADSS / Fold change vs veh, ADSS / RFU, GK / Fold change vs veh, GK / RFU, ZNF148 / Fold change vs veh, ZNF148 / RFU, TAF9 / Fold change vs veh, TAF9 / RFU, SLC1A5 / Fold change vs veh, SLC1A5 / RFU, SLMO2 / Fold change vs veh, SLMO2 / RFU, ABCC4 / Fold change vs veh, ABCC4 / RFU, LOC101060439 /// RAP1B / Fold change vs veh, LOC101060439 /// RAP1B / RFU, RFX7 / Fold change vs veh, RFX7 / RFU, GTPBP10 / Fold change vs veh, GTPBP10 / RFU, CNEP1R1 / Fold change vs veh, CNEP1R1 / RFU, BIVM-ERCC5 /// ERCC5 / Fold change vs veh, BIVM-ERCC5 /// ERCC5 / RFU, ILF3 / Fold change vs veh, ILF3 / RFU 11762660_at / Fold change /veh 11762660_at / RFU VCAN (11757783_s_at) / Fold change /veh VCAN (11757783_s_at) / RFU DDX43 (11728927_at) / Fold change /veh DDX43 (11728927_at) / RFU KRT8 (11758188_x_at) / Fold change /veh KRT8 (11758188_x_at) / RFU NKD1 (11759106_at) / Fold change /veh NKD1 (11759106_at) / RFU SRD5A1 (11742802_a_at) / Fold change /veh SRD5A1 (11742802_a_at) / RFU TPSAB1 /// TPSB2 (11721975_s_at) / Fold change /veh TPSAB1 /// TPSB2 (11721975_s_at) / RFU GSTM3 (11746129_a_at) / Fold change /veh GSTM3 (11746129_a_at) / RFU IL23R (11737362_x_at) / Fold change /veh IL23R (11737362_x_at) / RFU TMEM51 (11727254_a_at) / Fold change /veh TMEM51 (11727254_a_at) / RFU PIWIL2 (11732686_x_at) / Fold change /veh PIWIL2 (11732686_x_at) / RFU ORM1 (11744905_x_at) / Fold change /veh ORM1 (11744905_x_at) / RFU CCDC152 (11743942_at) / Fold change /veh CCDC152 (11743942_at) / RFU ECM1 (11717891_a_at) / Fold change /veh ECM1 (11717891_a_at) / RFU IL23R (11748794_a_at) / Fold change /veh IL23R (11748794_a_at) / RFU TNFAIP8L3 (11732012_x_at) / Fold change /veh TNFAIP8L3 (11732012_x_at) / RFU MBOAT4 (11741988_at) / Fold change /veh MBOAT4 (11741988_at) / RFU 11764193_at / Fold change /veh 11764193_at / RFU TMEM53 (11763286_at) / Fold change /veh TMEM53 (11763286_at) / RFU MAGEB2 (11727129_at) / Fold change /veh MAGEB2 (11727129_at) / RFU TMEM200A (11744735_a_at) / Fold change /veh TMEM200A (11744735_a_at) / RFU CCDC152 (11751479_a_at) / Fold change /veh CCDC152 (11751479_a_at) / RFU FAM211A (11726209_a_at) / Fold change /veh FAM211A (11726209_a_at) / RFU RGS16 (11746705_a_at) / Fold change /veh RGS16 (11746705_a_at) / RFU VCAN (11755009_s_at) / Fold change /veh VCAN (11755009_s_at) / RFU RHOB (11743442_s_at) / Fold change /veh RHOB (11743442_s_at) / RFU RGS16 (11720943_a_at) / Fold change /veh RGS16 (11720943_a_at) / RFU RGS16 (11720944_at) / Fold change /veh RGS16 (11720944_at) / RFU, VPS4B / Fold change vs veh, VPS4B / RFU, CREB1 / Fold change vs veh, CREB1 / RFU, DNAJC13 / Fold change vs veh, DNAJC13 / RFU, GNAQ / Fold change vs veh, GNAQ / RFU, CDK5R1 / Fold change vs veh, CDK5R1 / RFU, ZRANB3 / Fold change vs veh, ZRANB3 / RFU, CUL4A / Fold change vs veh, CUL4A / RFU, CCNY / Fold change vs veh, CCNY / RFU, UFL1 / Fold change vs veh, UFL1 / RFU, COG3 / Fold change vs veh, COG3 / RFU, DIAPH2 / Fold change vs veh, DIAPH2 / RFU, SKA2 / Fold change vs veh, SKA2 / RFU, AFF3 / Fold change vs veh, AFF3 / RFU, LMF1 / Fold change vs veh, LMF1 / RFU, IPO11 / Fold change vs veh, IPO11 / RFU, DFFB / Fold change vs veh, DFFB / RFU, FOXP1 / Fold change vs veh, FOXP1 / RFU, CARD8 / Fold change vs veh, CARD8 / RFU, STRN3 / Fold change vs veh, STRN3 / RFU, ADK / Fold change vs veh, ADK / RFU, RASSF2 / Fold change vs veh, RASSF2 / RFU, WIPF1 / Fold change vs veh, WIPF1 / RFU, LARP1B / Fold change vs veh, LARP1B / RFU, RASA1 / Fold change vs veh, RASA1 / RFU, RB1 / Fold change vs veh, RB1 / RFU, PPFIA1 / Fold change vs veh, PPFIA1 / RFU, MAT2A / Fold change vs veh, MAT2A / RFU, CCT5 / Fold change vs veh, CCT5 / RFU, WDR92 / Fold change vs veh, WDR92 / RFU, CUX1 / Fold change vs veh, CUX1 / RFU, TTC7A / Fold change vs veh, TTC7A / RFU, TMEM135 / Fold change vs veh, TMEM135 / RFU, DEPTOR / Fold change vs veh, DEPTOR / RFU, CPM / Fold change vs veh, CPM / RFU, DNAJB6 / Fold change vs veh, DNAJB6 / RFU, CACNA2D3 / Fold change vs veh, CACNA2D3 / RFU, DTX4 / Fold change vs veh, DTX4 / RFU, TFCP2 / Fold change vs veh, TFCP2 / RFU, GMCL1 /// GMCL1P1 / Fold change vs veh, GMCL1 /// GMCL1P1 / RFU, AEBP2 / Fold change vs veh, AEBP2 / RFU, SNHG1 /// SNORD22 /// SNORD25 /// SNORD26 /// SNORD27 /// SNORD28 /// SNORD29 /// SNORD31 / Fold change vs veh, SNHG1 /// SNORD22 /// SNORD25 /// SNORD26 /// SNORD27 /// SNORD28 /// SNORD29 /// SNORD31 / Fold change (Aza/veh), C12orf56 (ProbeSet 11735607_a_at) / Fold change (ACY-1035/veh), C12orf56 (ProbeSet 11735607_a_at) / Fold change (Aza/veh), FGFR1OP (ProbeSet 11751329_s_at) / Fold change (ACY-1035/veh), FGFR1OP (ProbeSet 11751329_s_at) / Fold change (Aza/veh), VPS36 (ProbeSet 11739960_a_at) / Fold change (ACY-1035/veh), VPS36 (ProbeSet 11739960_a_at) / RFU SYPL1 (11715823_x_at) / Fold change /veh SYPL1 (11715823_x_at) / RFU IGFBP7 (11715501_s_at) / Fold change /veh IGFBP7 (11715501_s_at) / RFU REEP3 (11722064_at) / Fold change /veh REEP3 (11722064_at) / RFU IGLL1 (11728026_x_at) / Fold change /veh IGLL1 (11728026_x_at): dose or concentration left out as unconfirmed
Conditions: ProbeSet 11726661_s_at; LIST B

Nc1ncn([C@@H]2O[C@H](CO)[C@@H](O)[C@H]2O)c(=O)n1 [azacitidine]
Fold change vs veh, GPN3: 0.91
